From ChEMBL document CHEMBL4339205, “Design, synthesis, and biological evaluation of novel pyrrolo[1,2-a]pyrazine derivatives” (Bioorg Med Chem Lett, 2019) come the findings set out here.

The subject of assay [1] is U-937. In words: Cytotoxicity against human U937 cells assessed as reduction in cell viability at 10 uM measured after 3 days by CCK8 assay. Type of assay: functional, cell-based. (Tetrazolium dyes change colour on reduction, which living cells bring about.)
Assay [2] concerns U-937. The assay can be described thus: Cytotoxicity against human U937 cells assessed as reduction in cell viability measured after 3 days by CCK8 assay. It is filed as functional, cell-based. To be noted: U-937, 72 h.
Assay [3] concerns U-937. The assay can be described thus: Induction of apoptosis in human U937 cells assessed as live cells at 0.3 uM measured after 1 day by muse Annexin V/dead cell reagent staining-based flow cytometry (reference value: 95.05 %). It is filed as functional. In general terms: In flow cytometry, cells or beads pass a laser one at a time.
Assay [4] deals with U-937. In words: Induction of apoptosis in human U937 cells assessed as necrotic cells at 0.3 uM measured after 3 days by muse Annexin V/dead cell reagent staining-based flow cytometry (reference value: 2.5 %). Type of assay: functional.
In assay [5] the test system is U-937. The assay can be described thus: Induction of apoptosis in human U937 cells assessed as late apoptotic cells at 0.3 uM measured after 2 days by muse Annexin V/dead cell reagent staining-based flow cytometry (reference value: 1.75 %). It is filed as functional.
In assay [6] the test system is U-937. In words: Induction of apoptosis in human U937 cells assessed as late apoptotic cells at 0.3 uM measured after 3 days by muse Annexin V/dead cell reagent staining-based flow cytometry (reference value: 1.75 %). It is filed as functional.
Assay [7] deals with T1, Protein farnesyltransferase (Homo sapiens) (UniProt P49354+P49356). The assay can be described thus: Inhibition of FTase (unknown origin). Type of assay: protein-complex assay.
The test system of assay [8] is U-937. The assay can be described thus: Induction of apoptosis in human U937 cells assessed as necrotic cells at 0.3 uM measured after 2 days by muse Annexin V/dead cell reagent staining-based flow cytometry (reference value: 2.5 %). It is filed as functional.
Assay [9] addresses c-Jun N-terminal kinase, JNK (Homo sapiens) (UniProt P45983+P53779+P45984). In words: Inhibition of JNK phosphorylation in human U937 cells at 0.3 uM measured after 1 to 3 hrs y Western blot analysis. It is filed as cell-based. (In general: In western blotting, separated proteins are transferred to a membrane and probed.)
The target in assay [10] is T1, Protein farnesyltransferase (Homo sapiens). In words: Inhibition of FTase in human U937 cells assessed as reduction in p38 MAPK phosphorylation at 0.3 uM measured after 1 to 3 hrs y Western blot analysis. Type of assay: cell-based.
The species entered for the next assay is Homo sapiens. In words: Inhibition of ERK phosphorylation in human U937 cells at 0.3 uM measured after 1 to 3 hrs y Western blot analysis. It is filed as cell-based.
The test system of assay [11] is U-937. The assay can be described thus: Induction of apoptosis in human U937 cells assessed as early apoptotic cells at 0.3 uM measured after 3 days by muse Annexin V/dead cell reagent staining-based flow cytometry (reference value: 0.7 %). It is filed as functional.
The subject of assay [12] is U-937. The assay can be described thus: Induction of apoptosis in human U937 cells assessed as live cells at 0.3 uM measured after 3 days by muse Annexin V/dead cell reagent staining-based flow cytometry (reference value: 95.05 %). It is filed as functional.
Assay [13] has as its system U-937. The assay can be described thus: Induction of apoptosis in human U937 cells assessed as early apoptotic cells at 0.3 uM measured after 2 days by muse Annexin V/dead cell reagent staining-based flow cytometry (reference value: 0.7 %). It is filed as functional.
For assay [14], the system named is U-937. The assay can be described thus: Induction of apoptosis in human U937 cells assessed as live cells at 0.3 uM measured after 2 days by muse Annexin V/dead cell reagent staining-based flow cytometry (reference value: 95.05 %). Type of assay: functional.
For a further assay, the system named is CCD-18Co. In words: Cytotoxicity against human CCD-18Co cells assessed as reduction in cell viability measured after 3 days by CCK8 assay. To be noted: 72 h. Type of assay: cell-based.
For assay [15], the system named is U-937. In words: Induction of apoptosis in human U937 cells assessed as early apoptotic cells at 0.3 uM measured after 1 day by muse Annexin V/dead cell reagent staining-based flow cytometry (reference value: 0.7 %). Type of assay: functional.
The test system of assay [16] is U-937. In words: Induction of apoptosis in human U937 cells assessed as late apoptotic cells at 0.3 uM measured after 1 day by muse Annexin V/dead cell reagent staining-based flow cytometry (reference value: 1.75 %). It is filed as functional.
Assay [17] concerns U-937. In words: Induction of apoptosis in human U937 cells assessed as increase in caspase-3/7 activity up to 1 uM after 24 hrs. It is filed as functional, cell-based.
Assay [18] relates to U-937. The assay can be described thus: Induction of apoptosis in human U937 cells assessed as necrotic cells at 0.3 uM measured after 1 day by muse Annexin V/dead cell reagent staining-based flow cytometry (reference value: 2.5 %). Type of assay: functional.

Activity calls are given as the source filed them. The rule behind the calls is not given here.

Regarding `COc1cccc(/C=C/C(=O)c2ccn3cc(-c4ccccc4)ncc23)c1`, the result in the assay on U-937 [1] was Active.
With `COc1ccc(/C=C/C(=O)c2ccn3cc(-c4ccccc4)ncc23)cc1`, the result in the assay on U-937 [1] was Active.
Consider `COc1ccccc1/C=C/C(=O)c1ccn2cc(-c3ccccc3)ncc12`, for which, in the assay on U-937 [1], the outcome was Active. Further, in the assay on U-937 [2], the IC50 was found to be 770 nM.
For `O=C(/C=C/c1ccccn1)c1ccn2cc(-c3ccccc3)ncc12`, in that order: “Active” and 880 nM.
In the case of `COc1ccc(/C=C/C(=O)c2ccn3cc(-c4ccccc4)ncc23)c(OC)c1`, the Activity was 84.45% with U-937 [3]; 5.2% in the assay on U-937 [4]; 4.2% in the assay on U-937 [5]; 5.7% with U-937 [6]; 5.1% in the assay on U-937 [8]; 5.95% with U-937 [11]. In addition, the Activity with U-937 [12] is given as 83.15%; in the assay on U-937 [13] it was 2.15%; with U-937 [14], 88.55%; with U-937 [15], 2.3%; in the assay with U-937 [16] it was 4.85%; in the assay with U-937 [18] it was 8.4%. The inhibition result in assay [7] and in [10] was “Active” each time. For the same compound, the inhibition result (in [9]; in the assay listed under Homo sapiens) was “inactive” throughout. Besides, the 50% inhibitory concentration (IC50) with CCD-18Co was found to be 7440 nM; in the assay on U-937 [2], 180 nM. The outcome with U-937 [17] was Active.
Turning to `COc1ccc(OC)c(/C=C/C(=O)c2ccn3cc(-c4ccccc4)ncc23)c1`, the result in the assay on U-937 [1] was inactive.
For the compound `O=C(/C=C/c1ccncc1)c1ccn2cc(-c3ccccc3)ncc12`, the outcome in the assay on U-937 [1] was Active. In addition, in the assay on U-937 [2], the IC50 is 690 nM.
`O=C(/C=C/c1ccccc1F)c1ccn2cc(-c3ccccc3)ncc12`: the result in the assay on U-937 [1] was inactive.
On the same count and under the same terms, under `O=C(/C=C/c1ccccc1Cl)c1ccn2cc(-c3ccccc3)ncc12` stands “inactive”.
Regarding `Nc1ccn([C@@H]2O[C@H](CO)[C@@H](O)[C@@H]2O)c(=O)n1` [CYTARABINE], the Activity came out at 79.05% in the assay with U-937 [3]; 11.05% with U-937 [4]; 5.35% with U-937 [5]; 10.55% with U-937 [6]; 8.8% in the assay on U-937 [8]; 8.7% in the assay on U-937 [11]. For the same compound, the Activity in the assay on U-937 [12] amounted to 69.7%; with U-937 [13], 2.65%; with U-937 [14] it was 83.2%; with U-937 [15], 4.2%; in the assay on U-937 [16] it was 5.55%; with U-937 [18], 11.2%. Besides, in the assay on U-937 [1], the result was Active. In addition, the IC50 with U-937 [2] turned out to be 2 nM.
`O=C(/C=C/c1cccnc1)c1ccn2cc(-c3ccccc3)ncc12`: in the assay with U-937 [1], the result was Active. The IC50 in the assay with U-937 [2] was 630 nM.
As to `O=C(/C=C/c1ccccc1I)c1ccn2cc(-c3ccccc3)ncc12`, the outcome in the assay on U-937 [1] was inactive.
`O=C(/C=C/c1ccccc1Br)c1ccn2cc(-c3ccccc3)ncc12`: in the assay with U-937 [1], the result was inactive.

By IC50 is commonly meant the concentration needed to halve the response being measured.
